One data set deals with QTc interval. Put plainly: single-dose ECG study in healthy human volunteers (1.6 and 3.2 mg/kg). It is filed as in vivo. Conditions: 3.2 mg/kg infused over 30 minutes. The protocol: Based on this, a single-dose ECG-study was conducted in healthy human volunteers, where 1.6 mg/kg and 3.2 mg/kg iclaprim was infused over 30 minutes. […] Maximal increases coincided with Cmax levels and were rapidly reversible. Weight-based dosing with 1.6 mg/kg was thus assessed as acceptable for clinical purposes, whereas weight-based dosing at 3.2 mg/kg was associated with relevant QTc prolongations (>60 msec) and nonspecific T-wave alterations, and was not used for further clinical studies.

Data set [1] deals with methicillin-resistant Staphylococcus aureus (MRSA) isolates nonsusceptible to daptomycin, linezolid or vancomycin. The experiment in a line: broth microdilution susceptibility of MRSA nonsusceptible to daptomycin, linezolid or vancomycin. It is filed as cell-based. The protocol:
Antibacterial susceptibility testing was conducted on a range of MRSA strains and isolates with varying susceptibilities to several recognized antistaphylococcal antibiotics. Susceptibility testing was performed by broth microdilution in accordance with the Clinical and Laboratory and Standards Institute (CLSI) guidelines. Minimum inhibitory concentrations (MICs) were based on CLSI criteria.
(In general: Broth dilution looks for growth in wells or tubes with falling amounts of substance.)

The subject of another data set is S. aureus ATCC 29213. The experiment in a line: MIC with/without bovine pulmonary surfactant. Format: cell-based. Conditions: Staphylococcus aureus. The protocol:
(§1) Antibacterial susceptibility testing was measured by JMI Labs (North Liberty, Iowa, USA). […] These clinical isolates were collected from US (n=4), Mexico (n=2), and Italy (n=1). Susceptibility testing was performed by broth microdilution in accordance with the Clinical and Laboratory and Standards Institute (CLSI) guidelines M07-A10 (2015) and the standard operating procedures at JMI laboratories. Minimum inhibitory concentrations (MICS) were based on CLSI criteria (2015). There are no published breakpoints for iclaprim. E. coli, K. pneumoniae, M. catarrhalis, E. faecalis, and S. aureus were tested in cation-adjusted Mueller-Hinton broth (CA-MHB). S. pneumoniae were tested in CA-MHB supplemented with 2.5-5% lysed horse blood, and H. influenza were tested in Haemophilus test medium. Quality control and interpretation of results were performed in accordance with CLSI M100-S26 (2016) methods. QC ranges for iclaprim were those approved by CLSI and published in M100-S26 (2016). Iclaprim and comparator antibiotic MIC results were within the CLSI published ranges against E. coli ATCC 25922, E. faecalis ATCC 29212, E. faecalis ATCC 33186, H. influenzae ATCC 49247, K. pneumoniae ATCC 700603 (ESBL phenotype), S. aureus ATCC 29213, and S. pneumoniae ATCC 49619. Isolates were tested with MIC panels (ThermoFisher Scientific, Cleveland, Ohio, USA) of comparator antibiotics (daptomycin and levofloxacin).
(§2) Because bovine pulmonary surfactant can introduce cloudiness to the MIC testing media, antimicrobial growth inhibition was also evaluated using the colorimetric metabolic indicator resazurin (Camlab Ltd., Cambridge, UK). […] S. pneumoniae panels were omitted from resazurin analysis because the color change was obscured by the lysed horse blood present in the test medium. Growth inhibition was then evaluated as a visible color change from blue (no growth) to pink (robust growth) and recorded as a MIC1z value.
(§3) The MICs of iclaprim, levofloxacin, and daptomycin were determined against Gram-positive and Gram-negative isolates.
(§4) A new vial of bovine pulmonary surfactant (BPS; Survanta®; Abbott Laboratories, Columbus, Ohio) was utilized for each independent experiment. Each vial was mixed thoroughly and a 100 μL aliquot was spread on an agar plate, which was incubated overnight to confirm sterility. […] The concentration of surfactant was expressed in terms of percent volume of Survanta® suspension, which consisted of phospholipid (25 mg/mL) and surfactant proteins (<1 mg/mL) in 0.9% sodium chloride solution (Goerke, 1998). MICs of daptomycin were determined in CAMHB with the Ca^2+ content adjusted to 50 mg/L.

The next data set has as its system E. coli ATCC 25922. Put plainly: MIC with/without bovine pulmonary surfactant. Conditions: Escherichia coli. Format: cell-based. The protocol:
as §1, §2, §3, §4

Another data set concerns E. faecalis ATCC 29212. Put plainly: MIC with/without bovine pulmonary surfactant. It is filed as cell-based. The conditions noted are these: Enterococcus faecalis. The protocol:
as §1, §2, §3, §4

Data set [2] has as its system M. catarrhalis Clinical Isolate 893806. The experiment in a line: MIC with/without bovine pulmonary surfactant. Format: cell-based. Conditions: Moraxella catarrhalis, 2.5% v/v BPS, read-out: MIC, Resazurin: +BPS. The protocol:
as §1, §2, §3, §4
On the technique in general: Alamar Blue is a resazurin reagent that responds to reducing activity.

≈ marks a conversion by molar mass, not a printed value. Like-named read-outs stand apart in the source and are kept apart here.

With `COc1cc(Cc2cnc(N)nc2N)c2c(c1OC)OC(C1CC1)C=C2` (racemic) [Iclaprim], the QTc prolongation in the data set with QTc interval is greater than 60 ms. Also, the “isolates with MIC≤1 μg/ml” value in data set [1] (MRSA nonsusceptible to daptomycin (5 of 7)) worked out at 71.4%; in data set [1] (MRSA nonsusceptible to linezolid (25 of 25)), 100%; in data set [1] (MRSA nonsusceptible to vancomycin (18 of 27)), 66.7%. Besides, the MIC in the data set with S. aureus ATCC 29213 (ATCC29213, 2.5% v/v BPS, read-out: MIC, CLSI: +BPS) stood at 0.06 µg/mL (≈ 0.169 µM); with S. aureus ATCC 29213 (ATCC29213, 2.5% v/v BPS, read-out: MIC, Resazurin: +BPS), 0.06 µg/mL (≈ 0.169 µM); with S. aureus ATCC 29213 (ATCC29213, no BPS, read-out: MIC, CLSI), 0.06 µg/mL (≈ 0.169 µM); in the data set on S. aureus ATCC 29213 (ATCC29213, no BPS, read-out: MIC, Resazurin) it was 0.06 µg/mL (≈ 0.169 µM); in the data set on E. coli ATCC 25922 (ATCC25922, 2.5% v/v BPS, read-out: MIC, CLSI: +BPS) it was 0.5 µg/mL (≈ 1.41 µM); in the data set on E. coli ATCC 25922 (ATCC25922, 2.5% v/v BPS, read-out: MIC, Resazurin: +BPS), 1 µg/mL (≈ 2.82 µM). In addition, the MIC in the data set on E. coli ATCC 25922 (ATCC25922, no BPS, read-out: MIC, CLSI) is 0.5 µg/mL (≈ 1.41 µM); in the data set on E. coli ATCC 25922 (ATCC25922, no BPS, read-out: MIC, Resazurin), 1 µg/mL (≈ 2.82 µM); in the data set on E. faecalis ATCC 29212 (ATCC29212, 2.5% v/v BPS, read-out: MIC, Resazurin: +BPS), no more than 0.015 µg/mL; with E. faecalis ATCC 29212 (ATCC29212, no BPS, read-out: MIC, Resazurin), no more than 0.015 µg/mL; in data set [2], 8 µg/mL (≈ 22.6 µM).

The MIC is the lowest concentration found to suppress growth.

These data come from US20190117653A1, “SYSTEMS AND METHODS FOR TREATING BACTERIAL INFECTION” (priority 2016, published 2019).
